In one data set the test system is HBV DNA. The data set is described as follows: Antiviral activity: inhibition of HBV DNA in supernatant of HepG2.2.15 cells (dot blot hybridization). It counts as cell-based, hepatitis B virus. As to conditions: for IC50: Hepatitis B virus, HepG2.2.15 cells, 8 days (2 x 4 days) incubation, read-out: IC50 (Inhibitory effect on HBV DNA); for SI: selectivity index, TC50 against IC50, HepG2.2.15 cells. As for the experimental part:
The antiviral activity of the compounds according to the present invention was tested following the methods described by Sells et al. (M. A. Sells, M. L. Chen, g. Acs, Proc. Natl. Acad. Sci., 1987, 84, 1005-1009) and Korba et al., (B. E. Korba, J. L. Gerin, Antiviral Research, 1992, 19. 55-70).
(§1) The antiviral tests were carried out in 96-well microtitre plates. Only growth medium and HepG2.2.15 cells were added to the first vertical row of the plate, which row severed as a blank control.
(§2) Stock solutions of the test compounds (50 mM) were initially dissolved in DMSO, and further dilutions were prepared in the growth medium of HepG2.2.15. The compounds according to the present invention, usually in a test concentration of 100 μg/ml (1st test concentration), were in each case pipetted into the second vertical test row of the microtitre plate and subsequently diluted by a factor of 2 each time, up to 2^10-fold, using growth medium plus 2% of foetal calf serum (volume 25 μl).
(§3) 225 μl of a HepG2.2.15 cell suspension (5×10^4 cells/ml) in growth medium plus 2% foetal calf serum were then added to each well of the microtitre plate.
(§4) The test batch was incubated at 37° C., 5% CO2 for 4 days. The supernatant was subsequently siphoned off and discarded, and 225 μl of freshly prepared growth medium were added to the wells. Once more, the compounds according to the present invention were added, in a volume 25 μl. The batches were incubated fro another 4 days.
The supernatants were subsequently harvested and, by means of reduced pressure, siphoned onto 96-well dot blot chambers covered with a nylon membrane (in accordance with the specification provided by the manufacturer).
After transfer of the supernatants onto the nylon membrane of the blot apparatus (see above), the supernatants of the HepG2.2.15 cells were denatured (1.5 M NaCl/0.5 N NaOH), neutralized (3 M […]/0.5 M Tris HCl, pH 7.5) and washed (2×SSC). By incubation of the filters at 120° C. for 2-4 hours, the DNA was subsequently baked onto the membrane.
The viral DNA of the treated HEpG2.2.15 cells on the nylon filter membrane was usually detected using non-radioactive digoxygenin-labelled hepatitis B-specific DNA probes which were in each case in accordance with the specifications of the manufacturer labelled with digoxygenin, purified and used for hybridization.
Briefly speaking, the prehybridization and hybridization were carried out in 5×SSC, 1×blocking reagent, 0.1% N-lauroylsacosine, 0.02% SDS and 100 μg of DNA from herring sperm. The prehybridization was carried out at 60° C. for 30 minutes and the specific hybridization was carried out using 20 to 40 ng/ml of the digoxygenated denatured HBV-specific DNA (14 hours, 60° C.). The fillers were subsequently washed, and then determination of HBV DNA by digoxygenin antibodies was carried out.
The digoxygenin-labelled DNA was detected immunologically in accordance with the specifications of the manufacturer.
Briefly speaking, the fillers were washed and prehybridized in a blocking agent (in accordance with the specifications of the manufacturer). They were subsequently hybridized for 30 minutes using an anti-DIG antibody linked to alkaline phosphatase. After a washing step, the substrate of alkaline phosphatase, CSPD, was added, incubated with the filters for 5 minutes, subsequently wrapped in plastic film and incubated at 37° C. for a further 15 minutes. The chemiluminescene of the Hepatitis B-specific DNA signals was visualized by exposition of the filters on an X-ray film (incubation, depending on the signal strength: 10 minutes to 2 hours). The half-maximum inhibitory concentration (IC50) was determined.
The half-maximum inhibitory concentration (IC50) means the concentration at which the hepatitis B-specific band was reduced by 50% in comparison with an untreated sample by the compound according to the present invention.

A short description of data set [1]: Cytotoxicity in HepG2.2.15 cells (cell morphology, Reed & Muench). It counts as cell-based. As to conditions: human, pathological changes observed by microscope after 8 days, read-out: TC50. The protocol: as §1, §2, §3, §4
Before the supernatants were harvested for determining the antiviral effect, the HePG2.2.15 cells were examined under the light microscope or by biochemical detection methods (for example Alamar Blue staining or Trypan Blue staining) for cytotoxic changes.
Substances-induced cytotoxic or cytostatic changes in the HepG2.2.15 cells were determined as changes in the cell morphology, for example under a light microscope. Such substance-induced changes of the HepG2.2.15 cells in comparison with untreated cells was apparent, for example, as cell lysis, vacuolization changed cell morphology. The pathological changes were observed by microscope after 8 days as index, a complete destroy being indicated as 4, 75% as 3, 50% as 2, 25% as 1, and no pathological change as 0. The average pathological change degree and inhibited percentages at various concentration were calculated, and a half-maximum toxic concentration (TC50) and a maximum non-toxic concentration […] were determined according to Reed & Muench methods.
TC50 means the concentration at which 50% of the cells have a morphology which is […] to the corresponding cell control by the compounds according to the present invention.

A short description of data set [2]: Solubility of the hydrochloride solid in solvents. The format is physicochemical. The protocol:
0.18 g of the target compound obtained in Example 5 was dissolved in 2 ml of anhydrous ethanol, a solution of hydrogen chloride in ethyl-ether was added dropwise to precipitate a solid, and filtered to give 0.19 g of an off-white powdered solid.

SMILES strings stand for the structures.

For `CCOC(=O)C1=C(CN(CCO)CCO)NC(c2c(F)cc(F)cc2F)=NC1c1ccc(F)cc1Cl` (stereo not drawn) [Example 15, ethyl 2-(2,4,6-trifluorophenyl)-4-(2-chloro-4-fluorophenyl)-6-diethanolaminomethyl-1,4-dihydropyrimidine-5-carboxylate], in the data set with HBV DNA, the 50% inhibitory concentration (IC50) is 6.7 µM and the SI is 8.11. In addition, the CC50 at 8 days in data set [1] was found to be 54 µM.
On the same counts, the results for `CCOC(=O)C1=C(CN2CCOCC2)N=C(c2c(F)cc(F)cc2N2CCOCC2)NC1c1ccc(F)cc1Cl` (stereo not drawn) [Example 13, ethyl 2-[2,4-difluoro-6-(morpholin-1-yl)phenyl]-4-(2-chlor-4-fluorophenyl)-6-(morpholine-1-ylmethyl)-1,4-dihydropyrimidine-5-carboxylate] are 4.4 µM, 12.72 and 55 µM.
Regarding `CCOC(=O)C1=C(CN2CCN(CC)CC2)NC(c2c(F)cc(F)cc2F)=NC1c1ccc(F)cc1Cl` (stereo not drawn) [Example 8, ethyl 2-(2,4,6-trifluorophenyl)-4-(2-chloro-4-fluorophenyl)-6-(4-ethylpiperazin-1-ylmethyl)-1,4-dihydropyrimidine-5-carboxylate], in the data set on HBV DNA, the IC50 amounted to 6.7 µM and the SI stood at 6.16. Besides, in data set [1], the CC50 at 8 days is 41 µM.
`CCOC(=O)C1=C(CN2CCOCC2)NC(c2c(F)cc(F)cc2F)=NC1c1ccc(F)cc1Cl.Cl` (stereo not drawn) [Example 18, ethyl 2-(2,4,6-trifluorophenyl)-4-(2-chloro-4-fluorophenyl)-6-(morpholin-1-ylmethyl)-1,4-dihydropyrimidine-5-carboxylate hydrochloride]: the “solubility in dichloromethane, ethyl acetate, acetone, and the like” value in data set [2] (dichloromethane, ethyl acetate, acetone) is “insoluble”. In data set [2] (methanol and ethanol), the “solubility in methanol and ethanol” value is given as “soluble slightly”. Further, the solubility in water result in data set [2] (water) is given as “greatly soluble”. For the same compound, in the data set with HBV DNA, the concentration for half-maximal inhibition (IC50) turned out to be 2.4 µM and the SI was 13.37. In addition, in data set [1], the CC50 at 8 days was 31 µM.

These data come from patent US8802669B2, “Dihydropyrimidine compounds and preparation methods, pharmaceutical compositions and uses thereof” (Institute of Pharmacology and Toxicology Academy of …, priority 2009, dated 2014).
